Patent publication US20110152166A1, “METHOD OF MODULATION OF PROTEIN PHOSPHORYLATION-DEPENDENT CONFORMATIONAL TRANSITIONS WITH LOW MOLECULAR WEIGHT COMPOUNDS” (priority 2006, published 2011)
Ends that are not written are not given here.

Biological target: T1, PDK1 50-360 [CT-PIF] (Homo sapiens, UniProt O15530)
T1 construct: comprising residues 50-360 joined to the last 48 aminoacids from PRK2; His-tag (pFastbac-HT) (N); made in house; host or cells: insect cells (pFastbac-HT baculovirus system); the other entry of the earlier key: PKN2 (Q16513, Serine/threonine-protein kinase N2)
T1 sequence (O15530 with tags, fused parts or gaps): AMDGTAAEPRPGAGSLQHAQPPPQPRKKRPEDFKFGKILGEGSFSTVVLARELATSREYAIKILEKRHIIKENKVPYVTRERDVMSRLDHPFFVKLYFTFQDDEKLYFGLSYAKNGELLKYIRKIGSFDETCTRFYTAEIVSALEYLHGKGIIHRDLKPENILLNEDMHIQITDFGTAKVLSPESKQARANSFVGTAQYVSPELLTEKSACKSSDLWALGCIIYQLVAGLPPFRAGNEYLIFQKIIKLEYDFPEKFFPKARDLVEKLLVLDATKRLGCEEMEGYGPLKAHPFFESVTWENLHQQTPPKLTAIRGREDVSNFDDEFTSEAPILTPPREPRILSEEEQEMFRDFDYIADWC
Assay: PDK1 activity assay with T308tide
Format: biochemical
Settings: for AC50: PDK1 50-360 [CT-PIF]; for effect on specific activity of chimera (in words): PDK1 50-360[CT-PIF] chimera
From the text: We generated a PDK1 chimera consisting of the catalytic domain of PDK1 comprising residues 50-360 joined to the last 48 aminoacids from PRK2, which include the sequence of PIFtide (PDK1 50-360[CT-PIF]). PIFtide binds with high affinity to PDK1. Therefore, we expected that the HM/PIF-pocket in this protein would be strongly bound to the C-terminus of PRK2. In this scenario, the specific activity of the PDK1 50-360[CT-PIF] chimera would not be affected by compounds which otherwise would bind to the PDK1 50-360 HM/PIF-pocket. The PDK1 50-360[CT-PIF] chimera had 1.5-fold higher specific activity than the PDK1 catalytic domain alone. Furthermore, the activity of PDK1 50-360[CT-PIF] chimera was not affected by PIFtide at concentrations that activated the PDK1 50-360 protein (FIG. 2G). Finally, PDK1 50-360[CT-PIF] specific activity was not affected by compound 1, further supporting the notion that PIFtide and compound 1 targeted an overlapping site in the catalytic domain of PDK1.
For the spectrofluorometer assay, the PDK1 protein used was the catalytic domain of PDK1 (50-359) produced in SF9 insect cells using baculovirus expression technology (Invitrogen). PDK1 was cloned in pFastbac-HT plasmid (NcoI-KpnI sites) taking advantage of an endogenous NcoI site in the PDK1 DNA sequence. The codon corresponding to aminoacid 360 was replaced by a stop codon. […]
Protein kinase activity tests were performed essentially as previously described (Balendran et al., 2000; Biondi et al., 2000; Biondi et al., 2001). Substrates used were either MBP (for PKCζ or polypeptides (Crosstide for PKB, S6K, SGK and PRK2; T308tide for PDK1, and Kemptide for PKA). PKA (Sigma) was measured in the presence of 100 μM cAMP. Alternatively, assays were performed in a 96 well format, aliquots spotted on p81 phosphocellulose papers (Whatmann), washed in 0.01% phosphoric acid, dried, and then exposed and analysed using Phospholmager technology (Storm, Molecular Dynamics). Activity measurements were performed in duplicates with less than 10% difference between duplicate pairs. Experiments were repeated at least twice, although most of the experiments were repeated multiple times, with similar results.
PDK1 activity assay was performed in a 20 μl mix containing 50 mM Tris-HCl pH 7.5, 0.05 mg/ml BSA, 0.1% β-mercaptoethanol, 10 mM MgCl2, 100 μM [γ^32P]ATP (5-50 cpm/pmol), 0.003% Brij, 150 ng PDK1, and T308tide (from 0.05 to 1 mM). PDK1 specific activity was approximately 5 U/mg (when measured at 1 mM T308tide). […]
PDK1 activity was measured at room temperature using a polypeptide substrate derived from the activation loop phosphorylation site of PKB, T308tide (0.1 mM). […]

| AC50 | effect on specific activity of chimera (in words) | Molecule |
| --- | --- | --- |
| No Effect | not affected | REPRILSEEEQEMFRDFDYIADWC [PIFtide, reference compound] |
| No Effect | not affected | O=C(O)CSC(CC(=O)c1ccc(Cl)cc1)c1ccccc1 (stereo not shown) [Compound 1] |
